Measured values reported in patent US9018216B2, “Solid forms of (R)-2-(5-(2-(3-ethylureido)-6-fluoro-7-(tetrahydrofuran-2-yl)-1H-benzo[d]imidazol-5-yl)pyrimidin-2-yl)propan-2-yl dihydrogen phosphate and salts thereof” (priority 2012, dated 2015).
Where “and” joins values, the source holds several entries; their conditions need not be identical. Identical values can stand only once. Like-named read-outs stand apart in the source and are kept apart here.

What was measured:
[1] = Monkey oral pharmacokinetic study; format: in vivo, cynomolgus monkeys; conditions: 0.5% MC, plasma analyte
Text: (§1) Plasma concentration vs. time data was subjected to noncompartmental pharmacokinetic (PK) analysis.

[2] = Rat oral pharmacokinetic study; format: in vivo, Sprague Dawley rats; conditions: plasma analyte; for AUC: male, Sprague Dawley, plasma, po, read-out: AUCextrap
Text: as §1

[3] = tested on: M. tuberculosis ATCC 35801 (strain Erdman); test: Mouse M. tuberculosis (Erdman) 28 day lung infection model; format: in vivo, M. tuberculosis; host Balb/c mice; conditions: 28 days; for Log Reduction vs. Early Control / Median Lung Burden / Log Reduction vs. Late Control: Table 23b
[4] = Pharmacokinetic studies: in vivo conversion of prodrug; conditions: in at least rats, dogs and monkeys
Protocol: The pharmacokinetic parameters of selected compounds of this invention were determined in the experiments described below. General analytic procedures and specific experimental protocols were employed as follows: […]

[5] = Rat IV pharmacokinetic study; conditions: D5W, plasma analyte
[6] = Monkey IV pharmacokinetic study; conditions: Compound W IV 5 mg/kg, D5W, plasma analyte
[7] = Stability of the solid forms (net increase in total impurities at 40 C/30% RH); format: physicochemical
[8] = Vapor sorption (DVS) of free forms; format: physicochemical
Protocol: In one embodiment, the hydrated Free Form A may be converted to anhydrous Free Form B of the compound by equilibrating in a low humidity environment. […] Upon dehydrating hydrated Free Form A, a corresponding anhydrous Free Form B may be obtained. […] Whether the hydrated Free Form A could absorb additional water is not known at this time. […] At 25° C., the critical humidity for conversion is around 40% (see vapor sorption experiment). […] Humidity was then changed by 5% increments until 95% RH was achieved using the same limiting conditions. The reverse steps were executed on the desorption side from 95% down to 5% RH, while always maintaining 25° C. temperature.

[9] = target: S. aureus DNA Topo IV (Staphylococcus aureus, UniProt P0C1S7); test: DNA Topo IV ATPase assay; format: biochemical; conditions: solid forms, Table 27c
Protocol: The conversion of ATP to ADP by S. aureus TopoIV enzyme was coupled to the conversion of NADH to NAD+, and the progress of the reaction was measured by the change in absorbance at 340 nm. TopoIV (64 nM) was incubated with the selected compound (3% DMSO final) in buffer for 10 minutes at 30° C. The buffer consisted of 100 mM Tris 7.5, 1.5 mM MgCl2, 200 mM K·Glutamate, 2.5 mM phosphoenol pyruvate, 0.2 mM NADH, 1 mM DTT, 5 ng/mL linearized DNA, 50 ng/mL BSA, 30 ng/mL pyruvate kinase, and 10 ng/mL lactate dehyrodgenase (LDH). The reaction was initiated with ATP, and rates were monitored continuously for 20 minutes at 30° C. on a Molecular Devices SpectraMAX plate reader. The inhibition constant, Ki, and the IC50 were determined from plots of rate vs. concentration of selected compound fit to the Morrison Equation for tight binding inhibitors.

[10] = tested on: E. coli DNA Topo IV; test: E. coli enzyme ATPase inhibition assay (Table 27b); format: biochemical; conditions: E. coli DNA Topo IV (table title), solid forms
[11] = tested on: Staphylococcus aureus ATCC 29213; test: microbe, parasite or virus in culture; format: cell-based; conditions: Protocol 1
[12] = tested on: Enterococcus faecium ATCC 49624; test: Gyrase MIC determination using microdilution broth method (Protocol 1); format: cell-based
[13] = tested on: Escherichia coli AG100; test: Gyrase MIC determination against Gram negatives using microdilution broth method (Protocol 2); format: cell-based
Protocol: (§2) Compounds of this invention were tested for antimicrobial activity by susceptibility testing in liquid media. […] The specific protocols used were as follows:
(§3) Protocol 2: Gyrase MIC Determination of Compounds Against Gram Negatives Using Microdilution Broth Method
(§4) Strains (MHII Media for all; Broth and Agar): • 1. Escherichia coli AG100 WT • 2. Escherichia coli AG100 tolC • 3. […] Haemophilus influenzae Rd0894 (AcrA−)
(§5) Inoculum Prep: • 1. Using the BBL Prompt kit, picked 5 big or 10 small, well separated colonies from cultures grown on agar medium and inoculated 1 mL sterile saline that came with the kit. • 2. Vortexed the wells for ˜30 s to give a suspension of ˜10^8 cells/mL. Actual density could be confirmed by plating out dilutions of this suspension. • 3. Diluted the suspension 1/100 by transferring 0.15 mL of cells into 15 mL (˜10^6 cells/mL) sterile broth (see below) for each plate of compounds tested, swirled to mix. […] Used 50 μl cells (˜5×10^4 cells) to inoculate each microtiter well containing 50 μl of the drug diluted in broth (see below).
(§6) Drug Dilutions, Inoculation, MIC Determination: • 1. […] Diluted drug/compound stocks to 200× desired final concentration in 50 μL DMSO. If starting concentration of MICs was 8 μg/mL final concentration, then required 6.25 μL of stock+43.75 μL DMSO. Each 200× stock was placed in a separate row of column 1 of a new 96 well microtiter plate. • 3. Added 25 μL of DMSO to columns 2-12 of all rows of the microtiter plate containing 200× compound stocks and serially diluted 25 μL from column 1 through column 11, changed tips after each column. i.e. 25 μL compound+25 μL DMSO=2× dilution. Left “no compound” DMSO well at the end of the series for control. • 4. For each strain tested, prepared two microtiter plates with 50 μL of MHII broth using a Matrix pipettor. • 5. Transferred 0.5 μL of each dilution (w/Matrix auto-pipettor) to 50 μL of medium/microtiter well prior to the addition of 50 μl of cells. The usual starting concentration of compound was 8 μg/mL after the 1/200 dilution into medium+cells−compound concentrations decreased in 2× steps across the rows of a microtiter plate. All MICs were done in duplicate. • 6. All wells were inoculated with 50 μl of diluted cell suspension (see above) to a final volume of 100 μl. • 7. After inoculum was added, each well was mixed thoroughly with a manual multichannel pipettor; same tips were used going from low to high concentration of drug in the same microtiter plate. • 8. Plates were incubated at 37° C. for at least 18 hours. • 9.
(§7) Examined the test plates after the correct incubation time and read the MIC endpoint at the concentration where a marked reduction occurred in the appearance of growth on the test plate as compared to that of growth on the positive control plates.

[14] = tested on: Haemophilus influenzae; test: as above; format: cell-based; conditions: Haemophilus influenzae Rd0894 (AcrA-)
Protocol: as §2, §3, §4, §5, §6, §7

[15] = target: S. aureus DNA gyrase (Staphylococcus aureus, UniProt P0A0K8); test: DNA gyrase ATPase assay; conditions: solid forms, Table 27a
[16] = tested on: Enterococcus faecalis ATCC 29212; test: Gyrase MIC determination using microdilution broth method (Protocol 1); format: cell-based; conditions: Enterococcus faecalis ATCC 29212, with 3% Laked Horse Blood
[17] = Staphylococcus aureus ATCC 29213
[18] = Staphylococcus aureus ATCC 29213 with 50% Mouse Serum
[19] = Enterococcus faecium ATCC 49624 with 3% Laked Horse Blood

## CCNC(=O)Nc1nc2cc(-c3cnc(C(C)(C)OP(=O)([O-])[O-])nc3)c(F)c([C@H]3CCCO3)c2[nH]1.[Na+].[Na+] [Compound W, disodium (R)-2-(5-(2-(3-ethylureido)-6-fluoro-7-(tetrahydrofuran-2-yl)-1H-benzo[d]imidazol-5-yl)pyrimidin-2-yl)propan-2-yl phosphate]
[1]; Compound W PO 100 mg/kg
  AUCextrap: 0.437 µg·h/mL
  t1/2: 5.31 h
[1]; Compound W PO 300 mg/kg
  t1/2: 13.15 h
[2]; Compound W oral 30 mg/kg, 0.5% MC
  t1/2: 3.1 h
[2]; Compound W oral 100 mg/kg, 0.5% MC
  t1/2: 7.2 h
[2]; Compound W oral 300 mg/kg, 0.5% MC
  t1/2: 11.3 h
[2]; 30 mg/kg, Compound W oral 30 mg/kg, 0.5% MC
  AUC: 58 ng·h/mL
[2]; 100 mg/kg, Compound W oral 100 mg/kg, 0.5% MC
  AUC: 66 ng·h/mL
[2]; 300 mg/kg, Compound W oral 300 mg/kg, 0.5% MC
  AUC: 464 ng·h/mL
[2]; 300 mg/kg, Compound W oral 300 mg/kg, 20% CAPT, 1% HPMC-AS, 1% PVP
  AUC: 4270 ng·h/mL
[3]; 10 mg/kg BID oral gavage
  Log Reduction vs. Early Control: 0.64 Log
  Median Lung Burden: 4.34 Log cfu/lungs
[3]; 10 mg/kg BID oral gavage, phosphate
  Log Reduction vs. Late Control: 0.02 Log
[3]; 30 mg/kg BID oral gavage
  Log Reduction vs. Early Control: 1.98 Log
  Log Reduction vs. Late Control: 1.36 Log
  Median Lung Burden: 3.00 Log cfu/lungs
[3]; 100 mg/kg BID oral gavage
  Log Reduction vs. Early Control: 2.63 Log
  Median Lung Burden: 2.35 Log cfu/lungs
[3]; 100 mg/kg BID oral gavage, phosphate
  Log Reduction vs. Late Control: 2.02 Log and 2.01 Log
[3]; doses of 10, 30, and 100 mg/kg BID
  reduction of bacterial burdens versus the early control: 0.64-2.63 logs
[4]
  in vivo conversion of prodrug into parent: converted in vivo into Compound 23
[5]; Compound W IV 1 mg/kg
  AUCextrap: 0.419 µg·h/mL
  Cl_obs: 46.7 mL/min/kg
  Cmax/C0: 4.8 µg/mL
  Vss_obs: 0.38 L/kg
[5]; Compound W IV 5 mg/kg
  AUCextrap: 1.12 µg·h/mL
  Cl_obs: 84.6 mL/min/kg
  Cmax/C0: 9.03 µg/mL
  Vss_obs: 5.8 L/kg
[6]
  AUCextrap: 5.83 µg·h/mL
  t1/2: 5.35 h

## CCNC(=O)Nc1nc2cc(-c3cnc(C(C)(C)OP(=O)(O)O)nc3)c(F)c([C@H]3CCCO3)c2[nH]1 [Form A, (R)-2-(5-(2-(3-ethylureido)-6-fluoro-7-(tetrahydrofuran-2-yl)-1H-benzo[d]imidazol-5-yl)pyrimidin-2-yl)propan-2-yl dihydrogen phosphate]
[7]; 15 days
  Net % increase in total impurities: 0.07%
[8]; vapor sorption, 25° C.
  water content of fully hydrated form (vapor sorption isotherm): about 6 weight %
[9]
  Ki: < 4 nM
[10]
  Ki: 11 nM
[11]; [17]
  MIC: 4 µg/mL
[11]; Staphylococcus aureus, ATCC29213, Staphylococcus aureus ATCC 29213 with 50% Mouse Serum, read-out: MIC
  MIC: 1 µg/mL
[12]; ATCC49624, Enterococcus faecium ATCC 49624 with 3% Laked Horse Blood, read-out: MIC
  MIC: 4 µg/mL
[13]; Escherichia coli AG100 WT
  MIC: >8 µg/mL
[13]; Escherichia coli AG100 tolC
  MIC: >8 µg/mL
[14]
  MIC: 0.25 µg/mL
[15]
  Ki: 26 nM

## CCNC(=O)Nc1nc2cc(-c3cnc(C(C)(C)OP(=O)(O)O)nc3)c(F)c([C@H]3CCCO3)c2[nH]1 [Form B, (R)-2-(5-(2-(3-ethylureido)-6-fluoro-7-(tetrahydrofuran-2-yl)-1H-benzo[d]imidazol-5-yl)pyrimidin-2-yl)propan-2-yl dihydrogen phosphate]
[7]; 17 days, listed as B
  Net % increase in total impurities: 0.16%
[8]; At 25° C.
  critical humidity for conversion of Free Form B back to Free Form A: around 40%
[9]
  Ki: 10 nM
[10]
  Ki: < 6 nM
[11]; [17]
  MIC: 4 µg/mL
[11]; [18]
  MIC: 1 µg/mL
[12]; [19]
  MIC: 4 µg/mL
[13]; Escherichia coli AG100 WT
  MIC: 2 µg/mL
[13]; Escherichia coli AG100 tolC
  MIC: 2 µg/mL
[14]
  MIC: 0.25 µg/mL
[15]
  Ki: < 25 nM

## CCNC(=O)Nc1nc2cc(-c3cnc(C(C)(C)OP(=O)(O)O)nc3)c(F)c([C@H]3CCCO3)c2[nH]1 [Form C, (R)-2-(5-(2-(3-ethylureido)-6-fluoro-7-(tetrahydrofuran-2-yl)-1H-benzo[d]imidazol-5-yl)pyrimidin-2-yl)propan-2-yl dihydrogen phosphate]
[7]; 17 days, listed as C
  Net % increase in total impurities: 0.18%
[10]
  Ki: < 6 nM
[11]; Staphylococcus aureus ATCC 29213 GyrB T173I
  MIC: >16 µg/mL
[11]; [18]
  MIC: 1 µg/mL and 2 µg/mL
[11]; Staphylococcus aureus, ATCC29213, Staphylococcus aureus ATCC 29213, read-out: MIC
  MIC: 4 µg/mL
[16]
  MIC: 2 µg/mL
[12]; [19]
  MIC: 4 µg/mL
[13]; Escherichia coli AG100 WT
  MIC: >16 µg/mL and >8 µg/mL
[14]; read-out: MIC
  MIC: 0.25 µg/mL
[15]
  Ki: 27 nM
